# How the values were obtained:
# HDAC6 = target: T1, HDAC6 (Homo sapiens, UniProt Q9UBN7); experiment: HDAC enzyme assays (selectivity); assay type: biochemical; conditions: HDAC6 vs class I HDACs
# T1 construct: purchased BPS Biosciences
# T1 sequence (Q9UBN7 1-1215): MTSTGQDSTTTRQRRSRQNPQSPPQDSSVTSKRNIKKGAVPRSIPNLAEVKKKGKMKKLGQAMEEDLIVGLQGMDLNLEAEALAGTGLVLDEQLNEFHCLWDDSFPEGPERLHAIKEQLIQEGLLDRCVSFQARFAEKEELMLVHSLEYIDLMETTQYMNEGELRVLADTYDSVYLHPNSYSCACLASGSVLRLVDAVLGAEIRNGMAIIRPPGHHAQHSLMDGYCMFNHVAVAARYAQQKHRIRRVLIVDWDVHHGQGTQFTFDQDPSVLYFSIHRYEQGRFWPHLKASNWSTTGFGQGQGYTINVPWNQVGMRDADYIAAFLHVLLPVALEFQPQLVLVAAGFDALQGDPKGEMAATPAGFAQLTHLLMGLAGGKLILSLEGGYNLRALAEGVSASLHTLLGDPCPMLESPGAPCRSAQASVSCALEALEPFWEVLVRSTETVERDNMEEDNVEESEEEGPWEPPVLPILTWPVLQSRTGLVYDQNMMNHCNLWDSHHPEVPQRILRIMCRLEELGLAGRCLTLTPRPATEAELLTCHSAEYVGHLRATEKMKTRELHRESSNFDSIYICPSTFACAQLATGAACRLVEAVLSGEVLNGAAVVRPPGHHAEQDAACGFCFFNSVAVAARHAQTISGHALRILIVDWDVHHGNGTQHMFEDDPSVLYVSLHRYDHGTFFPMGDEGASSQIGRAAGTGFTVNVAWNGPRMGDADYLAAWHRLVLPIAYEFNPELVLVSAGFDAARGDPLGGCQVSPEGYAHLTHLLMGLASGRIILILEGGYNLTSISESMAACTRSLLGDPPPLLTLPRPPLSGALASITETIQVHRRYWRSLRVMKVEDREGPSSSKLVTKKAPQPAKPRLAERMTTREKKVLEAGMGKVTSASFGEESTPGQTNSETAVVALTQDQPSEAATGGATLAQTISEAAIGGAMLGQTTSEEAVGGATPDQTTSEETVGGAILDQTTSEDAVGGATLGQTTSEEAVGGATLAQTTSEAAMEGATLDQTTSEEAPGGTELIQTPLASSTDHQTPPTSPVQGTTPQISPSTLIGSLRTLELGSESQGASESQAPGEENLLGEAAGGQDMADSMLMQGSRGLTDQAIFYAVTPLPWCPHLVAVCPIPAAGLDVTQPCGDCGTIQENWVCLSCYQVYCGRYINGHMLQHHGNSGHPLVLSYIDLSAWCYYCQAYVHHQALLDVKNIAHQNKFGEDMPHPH
# Description: Compounds for testing were diluted in DMSO to 50 fold the final concentration and a ten point three fold dilution series was made. The compounds were diluted in assay buffer (50 mM HEPES, pH 7.4, 100 mM KCl, 0.001% Tween-20, 0.05% BSA, 20 μM TCEP) to 6 fold their final concentration. The HDAC enzymes (purchased from BPS Biosciences) were diluted to 1.5 fold their final concentration in assay buffer. The tripeptide substrate and trypsin at 0.05 μM final concentration were diluted in assay buffer at 6 fold their final concentration. The final enzyme concentrations used in these assays were 3.3 ng/ml (HDAC1), 0.2 ng/ml (HDAC2), 0.08 ng/ml (HDAC3) and 2 ng/ml (HDAC6). […] Five μl of compound and 20 μl of enzyme were added to wells of a black, opaque 384 well plate in duplicate. Enzyme and compound were incubated together at room temperature for 10 minutes. Five μl of substrate was added to each well, the plate was shaken for 60 seconds and placed into a Victor 2 microtiter plate reader. The development of fluorescence was monitored for 60 min and the linear rate of the reaction was calculated. The IC50 was determined using Graph Pad Prism by a four parameter curve fit.
# [1] = tested on: Mino mantle cell lymphoma cells; experiment: Cell cycle inhibition, Mino cells; assay type: cell-based; conditions: 4 days, Compound A or B 2 μM, Lenalidomide 2 μM, Pomalidomide 1 μM
# [2] = tested on: Jeko1 mantle cell lymphoma cells; experiment: Cell cycle inhibition, Jeko1 cells; assay type: cell-based; conditions: 4 days, Compound B 2 μM, Lenalidomide 2 μM, Pomalidomide 1 μM
Compound,selectivity for HDAC6 over class I HDAC's (HDAC6),cell cycle progression [1],cell cycle progression [2]
"O=C(CCCCCCNC(=O)c1cnc(N(c2ccccc2)c2ccccc2)nc1)NO [Compound A, 2-(diphenylamino)-N-(7-(hydroxyamino)-7-oxoheptyl)pyrimidine-5-carboxamide]",approximately 11 fold,decreased cell cycle progression,
"O=C(CCCCCCNC(=O)c1cnc(N(c2ccccc2)c2ccccc2Cl)nc1)NO [Compound B, 2-((2-chlorophenyl)(phenyl)amino)-N-(7-(hydroxyamino)-7-oxoheptyl)pyrimidine-5-carboxamide]",,decreased cell cycle progression,decreased cell cycle progression
"O=C(NO)c1cnc(NC2(c3cccc(F)c3)CCCCC2)nc1 [Compound C, 2-((1-(3-fluorophenyl)cyclohexyl)amino)-N-hydroxypyrimidine-5-carboxamide]",more than 300 fold,,

# — patent US9949972B2, “Combinations of histone deacetylase inhibitors and immunomodulatory drugs” (Acetylon Pharmaceuticals, Inc., priority 2013, dated 2018)
